# Results taken from patent US6992193B2, “Sulfonylamino phenylacetamide derivatives and methods of their use” (Adolor Corporation, priority 2003, dated 2006).
# Where a name gives a salt, the structure may show the parent alone. Read-outs that look alike come from different tables or passages of the source.
# Columns and labels:
# [1] = tested on: cytochrome P450 enzymes (CYP2D6, CYP3A4, CYP2C9); experiment: Overall evaluation of inhibition of major drug metabolizing hepatic cytochrome P450 enzymes; format: in vitro ADME, human
# [2] = biological target: T1, cloned human κ receptors (Homo sapiens, UniProt P41145); experiment: [35S]GTPγS binding stimulation, membranes containing cloned human κ receptors; format: biochemical; conditions: half-maximal stimulation of [35S]GTPγS binding, cloned human κ receptor
# T1 construct: expressed in transfected cells
# Description: The potencies of the agonists were assessed by their abilities to stimulate [^35S]GTPγS binding to membranes containing the cloned human κ receptors.
# To determine the EC50 value, which was the concentration to give half-maximal stimulation of [^35S]GTPγS binding, the amount of [^35S]GTPγS bound in the presence of various concentrations of agonists was measured. The EC50 value was then determined.
# [3] = biological target: CYP2C9 (Homo sapiens, UniProt P11712); experiment: Inhibition of CYP2C9 conversion of dibenzylfluorescein to fluorescein; format: in vitro ADME; conditions: DBF to fluorescein conversion; read-out: IC50(CYP2C9)
# Description: (§1) Inhibition of CYP2C9 and CYP3A4
# (§2) These assays were carried out as described using CYP2C9 and CYP3A4 conversion of dibenzylfluorescein (DBF) to fluorescein (F).
# [4] = biological target: T2, cloned human μ opioid receptor (Homo sapiens, UniProt P35372); experiment: [3H]diprenorphine binding to cloned human μ opioid receptor
# T2 construct: expressed in transfected cells
# Description: (§3) IC50 values were obtained by nonlinear analysis of the data using GraphPad Prism version 3.00 for Windows (GraphPad Software, San Diego). Ki values were obtained by Cheng-Prusoff corrections of IC50 values.
# (§4) After dilution in buffer A and homogenization as before, membrane proteins (10-80 μg) in 250 μL were added to mixtures containing test compound and [^3H]diprenorphine (0.5 to 1.0 nM, 40,000 to 50,000 dpm) in 250 μL of buffer A in 96-well deep-well polystyrene titer plates (Beckman). After incubation at room temperature for one hour, the samples were filtered through GF/B filters that had been presoaked in a solution of 0.5% (w/v) polyethylenimine and 0.1% (w/v) bovine serum albumin in water. The filters were rinsed 4 times with 1 mL of cold 50 mM Tris HCl, pH 7.8 and radioactivity remaining on the filters determined by scintillation spectroscopy. Nonspecific binding was determined by the minimum values of the titration curves and was confirmed by separate assay wells containing 10 μM naloxone.
# (§5) To determine the equilibrium dissociation constant for the inhibitors (Ki), radioligand bound (cpm) in the presence of various concentrations of test compounds was measured. […] The nonlinear regression fit was performed using the program Prism® (GraphPad Software, San Diego, Calif.). The Ki values were then determined from the […] values by the following equation, [formula] • where [ligand] is the concentration of radioligand; and • Kd is the equilibrium dissociation constant for the radioligand.
# [5] = biological target: T3, CYP2D6 (Homo sapiens, UniProt P10635); experiment: Inhibition of CYP2D6 catalyzed conversion of MAMC to HAMC; format: in vitro ADME; conditions: MAMC to HAMC conversion; read-out: IC50(CYP2D6)
# T3 construct: purchased BD Biosciences
# Description: Inhibition of CYP2D6 Catalyzed Conversion of MAMC to HAMC
# Microsomes containing baculovirus expressed human recombinant CYP2D6 and MAMC were purchased from BD Biosciences. The method is a modification of the method provided by BD Biosciences.
# • Assay Buffer=50 mM KPO4, 15 μg/mL NADP^+, 0.30 mg/mL glucose-6-phosphate, 0.20 mg/mL MgCl2, 0.96 U/mL glucose-6-phosphate dehydrogenase, 2.5 μM MAMC, pH 7.4. • Dilution Buffer=50 mM KPO4, pH 7.4 • Enzyme Buffer=150 mM KPO4, pH 7.4 • Stop Solution=80% acetonitrile, 20% 0.5 M Tris Base Procedure:
# The assays were done in black 96 well plates (VWR Cat# 22221-572) and contained: 40 μL assay buffer, 10 μL test compound in dilution buffer and 50 μL of 10-15 pmol/mL CYP2D6 in enzyme buffer. Final concentrations: (100 mM KPO4, pH 7.4, 7.9 μM NADP^+, 0.36 mM glucose-6-phosphate, 0.4 mM MgCl2, 0.38 U/mL glucose-6-phosphate dehydrogenase, 1 μM MAMC (BD Biosciences), 0.5 pmol CYP2D6 (BD Biosciences))
# For large experiments, assay buffer and test compound were added using the MiniTrak IV (Packard Biosciences), otherwise they were added using 25-250 μL and 5-100 μL 8 channel electronic pipettors (BioHit). CYP2D6 was added using 25-250 μL 8 channel electronic pipettor.
# Titrations are done in either 96 well deep-well plates (Beckman) or 96 well microtiter plates (Costar), an initial dilution in dilution buffer is prepared from stock solutions in DMSO to start either 8 (1:6) or 12 (1:3.15) serial dilutions. For 1:6 dilutions, 50 μL for each dilution is transferred to 250 μL dilution buffer. For 1:3.15 dilutions, 50 μL for each dilution is transferred to 108 μL dilution buffer. Further details on concentrations will be provided in each experiment. Titrations are done using either 25-250 μL 8 channel electronic pipettor, 30-300 μL 12 channel manual pipettor (Spectrum), or the Multiprobe II. For screening, dilution plates are prepared in dilution buffer in 96 well microtiter plates from masterplates in 100% DMSO using the Multiprobe II or MiniTrak IV. After assay buffer and test compound has been added, the plates and the enzyme buffer are prewarmed at 37° C. for 15 minutes. After prewarming, CYP2D6 is added to then enzyme buffer and then added to the assay plate using 25-250 μL 8 channel electronic pipettor and the plates are incubated for 15 minutes at 37° C. After incubation, 50 μL stop solution is added using 25-250 μL 8 channel electronic pipettor. The plates are then counted on the Fusion (Packard Biosciences) for 4 sec/well using and excitation filter of 390 nm and an emission filter of 460 nm, intensity setting of 1, high detector sensitivity.
# Non-specific relative fluorescent units (RFU) are determined in the presence of 10 μM quinidine in wells A1, B1, and C1 of each plate and total RFU determined in wells D1, E1, F1 in the absence of test compound. Specific HAMC production is the difference between total and nonspecific. For each compound, a percent inhibition of HAMC production is calculated by: % I=(1−(A/B))*100 • where A=cpm specifically bound for test compound • B=cpm specifically bound in the absence of test compound For experiments where the plates are registered in the biological database, % I is determined automatically by the biological database. Titrations
# IC50's are calculated using nonlinear regression to a one-site model using GraphPad Prism or a VB algorithm fitting the data to that equation.
# [6] = biological target: CYP3A4 (Homo sapiens, UniProt P08684); experiment: Inhibition of CYP3A4 conversion of dibenzylfluorescein to fluorescein; format: in vitro ADME; conditions: DBF to fluorescein conversion; read-out: IC50(CYP3A4)
# Description: as §1, §2
# [7] = biological target: T4, cloned human κ opioid receptor (Homo sapiens, UniProt P41145); experiment: [3H]diprenorphine binding to cloned human κ opioid receptor
# T4 construct: expressed in transfected cells
# Description: as §3, §4
# To determine the equilibrium dissociation constant for the inhibitors (Ki), radioligand bound (cpm) in the presence of various concentrations of test compounds was measured. […] The nonlinear regression fit was performed using the program Prism® (GraphPad Software, San Diego, Calif.).
# [8] = biological target: T5, cloned human δ opioid receptor (Homo sapiens, UniProt P41143); experiment: [3H]diprenorphine binding to cloned human δ opioid receptor
# T5 construct: expressed in transfected cells
# Description: as §3, §4, §5
# [9] = inhibition of [3H]diprenorphine binding, cloned human μ receptor, read-out: Ki(μ)
# [10] = inhibition of [3H]diprenorphine binding, cloned human δ receptor, read-out: Ki(δ)
# T5 sequence (P41143 whole entry): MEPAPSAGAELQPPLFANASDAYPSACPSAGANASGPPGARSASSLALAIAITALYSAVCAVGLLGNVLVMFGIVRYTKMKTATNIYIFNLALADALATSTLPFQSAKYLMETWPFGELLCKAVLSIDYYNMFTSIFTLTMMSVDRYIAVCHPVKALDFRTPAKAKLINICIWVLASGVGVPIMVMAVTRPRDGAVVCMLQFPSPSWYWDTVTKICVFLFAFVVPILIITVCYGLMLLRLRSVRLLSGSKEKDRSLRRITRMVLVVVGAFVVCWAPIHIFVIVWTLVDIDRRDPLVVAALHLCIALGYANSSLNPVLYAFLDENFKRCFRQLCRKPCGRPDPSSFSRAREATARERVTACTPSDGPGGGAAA
# Sequence of CYP2C9 (P11712 whole entry): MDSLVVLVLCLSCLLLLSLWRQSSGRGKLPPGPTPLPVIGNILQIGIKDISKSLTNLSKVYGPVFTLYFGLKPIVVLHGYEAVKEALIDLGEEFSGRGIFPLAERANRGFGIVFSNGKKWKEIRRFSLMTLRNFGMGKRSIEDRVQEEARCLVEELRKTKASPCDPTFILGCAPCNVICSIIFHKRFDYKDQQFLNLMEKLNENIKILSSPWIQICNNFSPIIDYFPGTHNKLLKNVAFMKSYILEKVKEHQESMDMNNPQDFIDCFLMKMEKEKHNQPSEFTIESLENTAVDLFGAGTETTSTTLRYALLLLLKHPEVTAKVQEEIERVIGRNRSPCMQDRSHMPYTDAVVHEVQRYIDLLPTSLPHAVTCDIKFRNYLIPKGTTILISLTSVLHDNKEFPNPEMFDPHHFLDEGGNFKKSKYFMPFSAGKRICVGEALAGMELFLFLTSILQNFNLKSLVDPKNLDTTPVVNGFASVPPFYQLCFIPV
# T2 sequence (P35372 whole entry): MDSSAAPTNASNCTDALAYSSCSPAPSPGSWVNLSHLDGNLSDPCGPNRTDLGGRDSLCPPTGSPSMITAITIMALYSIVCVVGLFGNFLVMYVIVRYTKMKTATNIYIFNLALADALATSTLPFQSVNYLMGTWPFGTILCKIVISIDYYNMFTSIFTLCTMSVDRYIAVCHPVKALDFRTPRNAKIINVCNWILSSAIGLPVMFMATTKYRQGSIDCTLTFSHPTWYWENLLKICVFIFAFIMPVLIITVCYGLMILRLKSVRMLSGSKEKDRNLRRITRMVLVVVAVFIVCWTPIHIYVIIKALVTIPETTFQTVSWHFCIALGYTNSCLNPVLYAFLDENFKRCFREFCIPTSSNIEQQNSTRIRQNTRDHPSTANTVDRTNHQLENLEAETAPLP
# Sequence of CYP3A4 (P08684 whole entry): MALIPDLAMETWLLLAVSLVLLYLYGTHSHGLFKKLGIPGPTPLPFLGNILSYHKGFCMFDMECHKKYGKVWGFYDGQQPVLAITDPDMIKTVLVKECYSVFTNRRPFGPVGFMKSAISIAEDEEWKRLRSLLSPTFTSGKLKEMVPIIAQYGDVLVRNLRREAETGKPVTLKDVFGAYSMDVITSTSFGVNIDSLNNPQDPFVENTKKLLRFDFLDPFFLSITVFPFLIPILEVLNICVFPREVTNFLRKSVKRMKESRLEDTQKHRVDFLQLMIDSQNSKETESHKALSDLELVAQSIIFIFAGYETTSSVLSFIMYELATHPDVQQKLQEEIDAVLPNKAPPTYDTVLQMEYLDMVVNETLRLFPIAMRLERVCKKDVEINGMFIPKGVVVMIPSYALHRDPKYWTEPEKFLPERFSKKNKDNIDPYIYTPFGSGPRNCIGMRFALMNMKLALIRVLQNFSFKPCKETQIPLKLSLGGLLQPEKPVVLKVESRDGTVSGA
# T3 sequence (P10635 whole entry): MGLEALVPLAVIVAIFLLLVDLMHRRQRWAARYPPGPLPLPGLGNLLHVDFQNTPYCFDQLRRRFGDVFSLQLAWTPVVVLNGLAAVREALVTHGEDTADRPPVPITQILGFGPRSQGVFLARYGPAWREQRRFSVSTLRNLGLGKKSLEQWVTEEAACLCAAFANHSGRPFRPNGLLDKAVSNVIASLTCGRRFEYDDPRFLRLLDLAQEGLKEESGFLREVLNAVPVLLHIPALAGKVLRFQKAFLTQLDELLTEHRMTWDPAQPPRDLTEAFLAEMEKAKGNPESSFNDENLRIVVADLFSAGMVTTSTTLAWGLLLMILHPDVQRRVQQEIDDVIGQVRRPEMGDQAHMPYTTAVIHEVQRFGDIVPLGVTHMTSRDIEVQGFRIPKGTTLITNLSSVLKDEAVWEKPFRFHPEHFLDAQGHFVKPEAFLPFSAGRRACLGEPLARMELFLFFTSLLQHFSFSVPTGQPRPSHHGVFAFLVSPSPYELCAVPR
# T4 sequence (P41145 whole entry): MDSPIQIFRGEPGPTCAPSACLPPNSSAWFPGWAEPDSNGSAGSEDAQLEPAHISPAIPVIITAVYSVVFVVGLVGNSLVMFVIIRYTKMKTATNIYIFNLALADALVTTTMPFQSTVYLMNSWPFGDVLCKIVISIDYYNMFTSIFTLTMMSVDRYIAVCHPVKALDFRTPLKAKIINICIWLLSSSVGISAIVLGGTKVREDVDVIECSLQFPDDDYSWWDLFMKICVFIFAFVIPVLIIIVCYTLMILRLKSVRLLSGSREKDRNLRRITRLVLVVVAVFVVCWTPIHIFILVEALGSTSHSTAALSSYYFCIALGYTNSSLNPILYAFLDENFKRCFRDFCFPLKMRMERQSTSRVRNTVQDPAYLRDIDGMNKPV
# T1 sequence (P41145 whole entry): as above
Compound,activity toward the cytochrome P450 (summary in words) [1],EC50 [2],IC50 [3],Ki [4],IC50 [5],IC50 [6],Ki [7],Ki [8],"Ki [4, 9]","Ki [8, 10]"
"CN(C(=O)Cc1ccc(CN(C)S(C)(=O)=O)cc1)[C@H](CN1CC[C@H](O)C1)c1ccccc1.Cl [Example 24, N-{2-[3-(S)-hydroxy-pyrrolidin-1-yl]-1-(S)-phenyl-ethyl}-2-{4-[(methanesulfonyl-methyl-amino)-methyl]-phenyl}-N-methyl-acetamide hydrochloride]",metabolically stable in regard to their activity toward the cytochrome P450,55 nM,> 10000 nM,200 nM,> 10000 nM,> 10000 nM,14 nM,540 nM,–,–
"CC(C)[C@@H](CN1CC[C@H](O)C1)N(C)C(=O)Cc1ccc(CNS(C)(=O)=O)cc1.O=C(O)C(F)(F)F [Example 28, N-{1-[3-(S)-hydroxy-pyrrolidin-1-ylmethyl]-2-methyl-(S)-propyl}-2-[4-(methanesulfonylamino-methyl)-phenyl]-N-methyl-acetamide trifluoroacetate]",metabolically stable in regard to their activity toward the cytochrome P450,79 nM,> 10000 nM,> 3000 nM,> 10000 nM,> 10000 nM,6.2 nM,> 3000 nM,–,–
"CN(C(=O)Cc1ccc(CNS(=O)(=O)c2cccs2)cc1)[C@H](CN1CC[C@H](O)C1)c1ccccc1 [Example 22, N-{2-[3-(S)-hydroxy-pyrrolidin-1-yl]-1-(S)-Phenyl-ethyl}-N-methyl-2-{4-[(thiophene-2-sulfonylamino)-methyl]-phenyl}-acetamide hydrochloride]",–,4.9 nM,> 10000 nM,1100 nM,5800 nM,4400 nM,2.9 nM,56 nM,–,–
"CC(C)S(=O)(=O)NCc1ccc(CC(=O)N(C)[C@H](CN2CC[C@H](O)C2)c2ccccc2)cc1.Cl [Example 15, N-{2-[3-(S)-hydroxy-pyrrolidin-1-yl]-1-(S)-phenyl-ethyl}-N-methyl-2-{4-[(propane-2-sulfonylamino)-methyl]-phenyl}-acetamide hydrochloride]",metabolically stable in regard to their activity toward the cytochrome P450,–,> 10000 nM,–,> 10000 nM,> 10000 nM,–,–,1100 nM,470 nM
"CN(C(=O)Cc1ccc(CCCNS(C)(=O)=O)cc1)[C@H](CN1CC[C@H](O)C1)c1ccccc1.Cl [Example 27, N-{2-[3-(S)-hydroxy-pyrrolidin-1-yl]-1-(S)-phenyl-ethyl}-2-[4-(3-methanesulfonylamino-propyl)-phenyl]-N-methyl-acetamide hydrochloride]",metabolically stable in regard to their activity toward the cytochrome P450,–,> 10000 nM,–,> 10000 nM,> 10000 nM,–,–,320 nM,240 nM
"CS(=O)(=O)NCc1ccc(CC(=O)N2CCCC[C@H]2CN2CC[C@H](O)C2)cc1.O=C(O)C(F)(F)F [Example 29, N-[4-(2-{2-[3-(S)-hydroxy-pyrrolidin-1-ylmethyl]-(S)-piperidin-1-yl}-2-oxo-ethyl)-benzyl]-methanesulfonamide trifluoroacetate]",metabolically stable in regard to their activity toward the cytochrome P450,27 nM,> 10000 nM,> 3000 nM,> 10000 nM,> 10000 nM,2.1 nM,> 3000 nM,–,–
"Cc1noc(C)c1S(=O)(=O)NCc1ccc(CC(=O)N(C)[C@H](CN2CC[C@H](O)C2)c2ccccc2)cc1 [Example 23, 2-{4-[(3,5-dimethyl-isoxazole-4-sulfonylamino)-methyl]-phenyl}-N-{2-[3-(S)-hydroxy-pyrrolidin-1-yl]-1-(S)-phenyl-ethyl}-N-methyl-acetamide hydrochloride]",–,52 nM,> 10000 nM,1400 nM,11000 nM,4300 nM,25 nM,320 nM,–,–
